Patent US8686075B2, “Polysulfone compositions and methods for the manufacture and use thereof” (SABIC Innovative Plastics IP B.V., priority 2011, dated 2014)

Experiments:
[1] = molecular target: T1, recombinant human estradiol receptors (rhER) alpha (α) (Homo sapiens, UniProt P03372); assay: competitive binding assay, displacement of [3H] estradiol radioligand from rhER alpha; conditions: text statements, tested up to 2.5×E-4 M
T1 sequence (P03372 1-595): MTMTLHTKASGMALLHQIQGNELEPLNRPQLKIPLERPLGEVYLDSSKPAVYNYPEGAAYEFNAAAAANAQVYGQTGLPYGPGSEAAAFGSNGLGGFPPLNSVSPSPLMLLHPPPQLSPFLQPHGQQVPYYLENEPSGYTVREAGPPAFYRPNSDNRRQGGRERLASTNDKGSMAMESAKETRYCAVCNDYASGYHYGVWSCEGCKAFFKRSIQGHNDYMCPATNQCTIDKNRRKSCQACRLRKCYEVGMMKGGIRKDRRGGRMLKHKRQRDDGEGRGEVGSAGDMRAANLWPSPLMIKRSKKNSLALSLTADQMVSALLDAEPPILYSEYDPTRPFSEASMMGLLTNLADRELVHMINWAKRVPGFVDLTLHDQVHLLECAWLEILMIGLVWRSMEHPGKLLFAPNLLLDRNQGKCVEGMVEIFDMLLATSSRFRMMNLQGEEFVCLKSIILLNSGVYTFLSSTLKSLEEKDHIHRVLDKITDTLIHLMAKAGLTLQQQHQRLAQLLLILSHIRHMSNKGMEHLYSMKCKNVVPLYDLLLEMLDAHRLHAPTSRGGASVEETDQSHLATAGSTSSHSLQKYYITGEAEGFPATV

[2] = molecular target: recombinant human estradiol receptors (rhER) beta 1 (β1) (Homo sapiens, UniProt Q92731); assay: competitive binding assay, displacement of [3H] estradiol radioligand from rhER beta 1; conditions: tested up to 2.5×E-4 M

Compound	estradiol binding / displacement at the alpha estradiol receptor (in words) [1]	estradiol binding / displacement at the beta estradiol receptor (in words) ([2]; text statements)	other results
CC(C)(c1ccccc1)c1ccc(O)cc1 [B, p-Cumyl Phenol, reference compound]	displace estradiol at low concentrations	displace estradiol at low concentrations	–
O=C1c2ccccc2C(c2ccc(O)cc2)(c2ccc(O)cc2)N1c1ccccc1 [Example 3, N-Phenyl Phenolphthalein Bisphenol]	no detectible estradiol displacement	no detectible estradiol displacement	estradiol binding / displacement at the alpha estradiol receptor (in words) ([1]; listed as N-phenyl phenolphthalein bisphenol): no estradiol binding; estradiol binding / displacement at the beta estradiol receptor (in words) ([2]; text statements, listed as N-phenyl phenolphthalein bisphenol): no estradiol binding
Oc1cccc(O)c1 [Example 4, Resorcinol]	no detectible estradiol displacement	no detectible estradiol displacement	estradiol binding / displacement at the alpha estradiol receptor (in words) ([1]; listed as resorcinol): no estradiol binding; estradiol binding / displacement at the beta estradiol receptor (in words) ([2]; text statements, listed as resorcinol): no estradiol binding
Cc1cc(O)ccc1O [Example 8, Methyl Hydroquinone]	–	no alpha or beta estradiol displacement	estradiol binding / displacement at the beta estradiol receptor (in words) ([2]; text statements, listed as methyl hydroquinone): no estradiol binding
Cc1cc(C2(c3ccc(O)c(C)c3)CCCCC2)ccc1O [G, Dimethyl Cyclohexyl Bisphenol, reference compound]	displace estradiol at low concentrations	displace estradiol at low concentrations	–
CC(C)(c1ccc(O)cc1)c1cccc(C(C)(C)c2ccc(O)cc2)c1 [K, Bisphenol M, reference compound]	displace estradiol at low concentrations	displace estradiol at low concentrations	–
O=C1OC(c2ccc(O)cc2)(c2ccc(O)cc2)c2ccccc21 [O, Phenolphthalein, reference compound]	–	estradiol displacement at low concentration	–
Biphenol [Example 6]	no displacement of the estradiol	no estradiol binding	estradiol binding / displacement at the alpha estradiol receptor (in words) ([1]; listed as biphenol): no estradiol binding
Bis Hydroxy Phenyl Menthane [reference compound]	displace estradiol at low concentrations	displace estradiol at low concentrations	–
Bisphenol Acetophenone [D, reference compound]	displace estradiol at low concentrations	–	–
Dihydroxy Diphenyl Ether [Example C, reference compound]	–	displace estradiol at low concentrations	–
Diphenolic Acid Methyl Ester [F, reference compound]	displace estradiol at low concentrations	displace estradiol at low concentrations	–
Fluorenone Bis-o-Cresol [reference compound]	–	displace estradiol at low concentrations	–
Tetra Methyl BPA [Example 1]	–	no detectible estradiol displacement	estradiol binding / displacement at the beta estradiol receptor (in words) ([2]; listed as tetra methyl bisphenol-A): no estradiol binding
